Converted amounts (≈) assume the structure as drawn.
Tests used:
S. aureus (UAMS1) = test: Minimum inhibitory concentration, S. aureus UAMS1; type: cell-based; conditions: Staphylococcus aureus; strain UAMS1
[1] = test system: S. aureus (UAMS1) biofilm; test: Biofilm CFU on stainless-steel rings, antibiotic with or without iAMF, UAMS1; type: cell-based; conditions: for CFU at 24 h, iAMF and antibiotic versus antibiotic alone: antibiotic 2 μg/mL, iAMF Tmax=65 °C, 15 min per dose at 0 and 12 h
Method: Biofilm preparation, treatment and quantification.
Doses were delivered at 0 and 12 hours and ring biofilm burden was quantified at various time points as above. For S. aureus experiments, biofilm of UAMS1 were prepared on stainless steel rings according to the culturing protocol and incubated with 2 μg/mL of ceftriaxone or 2 μg/mL of linezolid, in 10 mL TSB media. […] Doses were delivered at 0 and 12 hours and biofilm burden was quantified at 24 hours.

[2] = test system: P. aeruginosa (MB699) biofilm; test: Scanning electron microscopy of MB699 biofilm; type: cell-based; conditions: 64 μg/mL; for bacterial morphology by SEM, antibiotic alone: 12 h, no iAMF; for bacterial morphology by SEM, iAMF and antibiotic: 12 h post iAMF (Tmax=65 °C, Nexp=12)
Method: […]. The rings were carefully transferred to 4 mL PBS, rinsed in 4 mL of 0.1 M sodium cacodylate buffer three times and fixed for 24 h in 4 mL of 2% glutaraldehyde, 2% paraformaldehyde in 0.1 M sodium cacodylate buffer. After rinsing in 4 mL of cacodylate buffer three times, the samples were re-fixed in 4 mL of 2% osmium in 0.1 M sodium cacodylate buffer for 2 h. Then the rings were further rinsed with 4 mL of deionized water five times and dehydrated at room temperature in five steps by placing the rings in 4 mL of 50, 70 (twice), 85, 95 (twice) and 100% ethanol respectively for 5 min per solution. The rings were then transferred to 4 mL of 25, 50, 75 and 100% (twice) hexamethyldisilazane (HMDS) in ethanol consecutively for 15 min each. Finally, the samples were left to dry for 24 h in a fume hood. The specimens were mounted on aluminum stubs, gold/palladium sputter coated, and examined using a Zeiss Sigma VP scanning electron microscope. The images were acquired at 10 kV with magnification of approximately 35000×.

GFP-PAO1 biofilms = test: Laser scanning confocal microscopy of GFP-PAO1 biofilm; conditions: 0.5 μg/mL
Excerpt: After staining, rings were mounted on a 50 mm glass bottom plate and images were captured with a Zeiss LSM880 Airyscan laser confocal microscope. The GFP-PA01 bacteria and ConA-stained EPS were imaged using a 40× objective lens. Multiple regions of the ring surface were randomly selected, and Z-stacks were acquired with slice step size of 0.5 μm. Before image processing, the z-stacks were deconvolved using Autoquant×3 (Media Cybernetics, MD, USA) to improve the image resolution in X, Y and Z directions. The deconvolved images were analyzed with Imaris x64 9.1.2 (Bitplane AG, Zurich, Switzerland).

[3] = test system: MDR P. aeruginosa (MB699) biofilm; test: Biofilm CFU on rings, antibiotic with or without iAMF, MDR strain MB699; conditions: for CFU reduction with iAMF at other antibiotic concentrations: meropenem sub-MIC 32 μg/mL, ciprofloxacin increased concentration (128 μg/ml), 48 h
[4] = test system: MDR P. aeruginosa (MB699); test: microbe, parasite or virus in culture; conditions: Pseudomonas aeruginosa, read-out: minimum inhibitory concentration (MIC)

| MIC (S. aureus (UAMS1)) [µg/mL] | Structure (SMILES) | CFU at 24 h, iAMF and antibiotic versus antibiotic alone [1] | bacterial morphology by SEM, antibiotic alone [2] | bacterial morphology by SEM, iAMF and antibiotic [2] | CFU reduction with iAMF at other antibiotic concentrations [3] | other results |
| --- | --- | --- | --- | --- | --- | --- |
| 2 (≈ 3.61 µM) | CO/N=C(\C(=O)N[C@@H]1C(=O)N2C(C(=O)O)=C(CSc3nc(=O)c(=O)[nH]n3C)CS[C@H]12)c1csc(N)n1 [ceftriaxone] | significantly lower CFU |  |  |  | CFU after 24 h ([1]; 2 μg/mL ceftriaxone in combination with iAMF (doses at 0 and 12 h)): approaching the limit of detection; CFU reduction after 24 h ([1]; ceftriaxone alone, 2 μg/mL): ~2 log; initial decrease of biofilm CFU ([1]; iAMF (Tmax=65 °C, 15 min dose) and 2 μg/mL ceftriaxone, after first dose): over 3 logs |
|  | O=C(O)c1cn(C2CC2)c2cc(N3CCNCC3)c(F)cc2c1=O [ciprofloxacin] |  | no obvious morphological changes | slight lengthening of bacteria and increased wrinkling of the membrane | did not lead to enhanced CFU decreases | bacterial morphology by confocal microscopy, ciprofloxacin only (GFP-PAO1 biofilms; 12 h post-treatment): slight elongation; EPS staining and morphology by confocal microscopy, iAMF and ciprofloxacin (GFP-PAO1 biofilms; iAMF Tmax=65 °C, Nexp=12, 12 h): less dense EPS staining; bacterial burden (CFU) at 48 h with iAMF and antibiotic [3]: did not result in a further reduction of CFU |
| 2 (≈ 5.93 µM) | CC(=O)NC[C@H]1CN(c2ccc(N3CCOCC3)c(F)c2)C(=O)O1 [linezolid] | significantly lower CFU |  |  |  | magnitude of biofilm reduction, 7-day versus 2-day biofilm ([1]; iAMF (Tmax=65 °C, 15 min per dose) and 2 μg mL-1 linezolid): no significant difference |
|  | C[C@@H](O)[C@H]1C(=O)N2C(C(=O)O)=C(S[C@@H]3CN[C@H](C(=O)N(C)C)C3)[C@H](C)[C@H]12 [meropenem] |  | no obvious morphological changes | fragmented and deformed bacterial cells | also seen | MIC [4]: 64 µg/mL (≈ 167 µM); interaction of iAMF and antibiotic in MDR strain ([3]; strain with oprD porin and DNA gyrase mutations): synergistic effect |
